The record followed here is ChEMBL document CHEMBL4229453, “New lead elements for histamine H3 receptor ligands in the pyrrolo[2,3-d]pyrimidine class” (Bioorg Med Chem Lett, 2018).

Assay [1] concerns the target T1, Histamine H3 receptor (Homo sapiens, UniProt Q9Y5N1). Briefly: Displacement of [3H]Nalpha-methylhistamine from human H3 receptor at 1 uM relative to control. (In general: Displacement assays read how much labelled ligand stays bound in the presence of the test substance.)
In assay [2] the target is Histamine H4 receptor (Homo sapiens) (UniProt Q9H3N8). Briefly: Displacement of [3H]histamine from human H4 receptor at 1 uM relative to control.
Assay [3] concerns the target T1, Histamine H3 receptor. Briefly: Displacement of [3H]Nalpha-methylhistamine from human H3 receptor.

T1 sequence (Q9Y5N1 whole entry): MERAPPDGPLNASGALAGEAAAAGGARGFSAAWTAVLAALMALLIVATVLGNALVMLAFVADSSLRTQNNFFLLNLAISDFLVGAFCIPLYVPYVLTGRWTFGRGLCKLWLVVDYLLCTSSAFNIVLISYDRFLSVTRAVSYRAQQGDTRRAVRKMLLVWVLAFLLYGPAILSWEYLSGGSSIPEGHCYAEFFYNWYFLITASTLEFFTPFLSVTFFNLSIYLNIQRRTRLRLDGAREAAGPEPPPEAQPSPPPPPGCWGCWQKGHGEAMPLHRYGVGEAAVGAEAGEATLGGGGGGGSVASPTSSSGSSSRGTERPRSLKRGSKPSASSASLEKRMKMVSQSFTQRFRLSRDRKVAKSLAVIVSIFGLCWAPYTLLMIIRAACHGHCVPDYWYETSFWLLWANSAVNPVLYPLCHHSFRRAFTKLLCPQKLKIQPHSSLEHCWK
Chain of Histamine H4 receptor (Homo sapiens) (Q9H3N8 whole entry): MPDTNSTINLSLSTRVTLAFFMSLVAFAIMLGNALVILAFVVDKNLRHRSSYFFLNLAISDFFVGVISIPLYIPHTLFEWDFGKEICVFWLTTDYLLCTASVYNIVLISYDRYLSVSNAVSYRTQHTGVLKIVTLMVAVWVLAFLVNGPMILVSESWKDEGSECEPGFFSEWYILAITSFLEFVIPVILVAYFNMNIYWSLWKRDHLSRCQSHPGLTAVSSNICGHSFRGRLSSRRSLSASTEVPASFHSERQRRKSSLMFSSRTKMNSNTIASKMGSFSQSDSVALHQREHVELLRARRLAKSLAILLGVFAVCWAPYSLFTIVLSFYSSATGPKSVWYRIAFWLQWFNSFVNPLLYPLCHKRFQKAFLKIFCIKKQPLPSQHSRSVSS

Take `Clc1nc(NCCN2CCOCC2)c2ccn(Cc3cccc4ccccc34)c2n1`: the inhibition (on Histamine H3 receptor [1]; in assay [2]) was less than 80% each time.

Turning to `Clc1nc(N2CCC(N3CCCCC3)CC2)c2ccn(Cc3ccc4ccccc4c3)c2n1`, the inhibition (commonly the percentage by which the read-out fell short of the control) was 95% at Histamine H3 receptor [1] and less than 80% in assay [2]. In addition, the inhibition constant Ki (usually the dissociation constant of the complex between target and ligand, obtained from inhibition or displacement) at Histamine H3 receptor [3] is 126 nM.

On to `Clc1nc(N2CCC(N3CCOCC3)CC2)c2ccn(Cc3ccc4ccccc4c3)c2n1`, for which the inhibition (on Histamine H3 receptor [1]; in assay [2]) was less than 80% throughout.

`CN1CCN(c2nc(Cl)nc3c2ccn3Cc2ccccc2)CC1`: the inhibition (on Histamine H3 receptor [1]; in assay [2]) was less than 80% in each case.

Regarding `CN1CCN(c2nc(Cl)nc3c2ccn3Cc2ccc3ccccc3c2)CC1`, the inhibition (at Histamine H3 receptor [1]; in assay [2]) was less than 80% in each case.

Regarding `Clc1nc(N2CCC(N3CCOCC3)CC2)c2ccn(Cc3ccccc3)c2n1`, the inhibition (at Histamine H3 receptor [1]; in assay [2]) was less than 80% throughout. Further, the affinity on Histamine H3 receptor [3], expressed as Ki, was 1070 nM.

On to `CN1CCN(c2nc(Cl)nc3c2ccn3Cc2cccc3ccccc23)CC1`, for which the inhibition (at Histamine H3 receptor [1]; in assay [2]) was less than 80% in each case.

Regarding `Clc1nc(N2CCC(N3CCCCC3)CC2)c2ccn(Cc3ccccc3)c2n1`, the inhibition at Histamine H3 receptor [1] is 96%; in assay [2], less than 80%. On Histamine H3 receptor [3], this compound had an inhibition constant (Ki) of 490 nM.

As for `Clc1nc(N2CCC(N3CCOCC3)CC2)c2ccn(Cc3cccc4ccccc34)c2n1`, the inhibition (at Histamine H3 receptor [1]; in assay [2]) was less than 80% each time.

On to `Clc1nc(NCCN2CCOCC2)c2ccn(Cc3ccccc3)c2n1`, for which the inhibition (on Histamine H3 receptor [1]; in assay [2]) was less than 80% throughout.

In the case of `Clc1nc(N2CCC(N3CCCCC3)CC2)c2ccn(Cc3cccc4ccccc34)c2n1`, the inhibition at Histamine H3 receptor [1] is 95%; in assay [2], less than 80%. Further, the Ki on Histamine H3 receptor [3] is 148 nM.

`Clc1nc(NCCN2CCOCC2)c2ccn(Cc3ccc4ccccc4c3)c2n1`: the inhibition (at Histamine H3 receptor [1]; in assay [2]) was less than 80% each time.
